Data from ChEMBL document CHEMBL3233010, “Design, synthesis and biological evaluation of novel 6-alkenylamides substituted of 4-anilinothieno[2,3-d]pyrimidines as irreversible epidermal growth factor receptor inhibitors” (Bioorg Med Chem, 2014).
Calls of active or inactive are those of the source. No cut-off for these calls is given here.

How the values were obtained:
[1] = target: Epidermal growth factor receptor (Homo sapiens, UniProt P00533, L858R/T790M); assay: Inhibition of EGFR T790M/L858R double mutant (unknown origin) expressed in baculovirus expression system using Poly(Glu:Tyr)4:1 substrate after 60 mins by ELISA
Epidermal growth factor receptor (Homo sapiens, UniProt P00533, L858R/T790M), sequence (P00533 25-1210 T790M/L858R limits assumed): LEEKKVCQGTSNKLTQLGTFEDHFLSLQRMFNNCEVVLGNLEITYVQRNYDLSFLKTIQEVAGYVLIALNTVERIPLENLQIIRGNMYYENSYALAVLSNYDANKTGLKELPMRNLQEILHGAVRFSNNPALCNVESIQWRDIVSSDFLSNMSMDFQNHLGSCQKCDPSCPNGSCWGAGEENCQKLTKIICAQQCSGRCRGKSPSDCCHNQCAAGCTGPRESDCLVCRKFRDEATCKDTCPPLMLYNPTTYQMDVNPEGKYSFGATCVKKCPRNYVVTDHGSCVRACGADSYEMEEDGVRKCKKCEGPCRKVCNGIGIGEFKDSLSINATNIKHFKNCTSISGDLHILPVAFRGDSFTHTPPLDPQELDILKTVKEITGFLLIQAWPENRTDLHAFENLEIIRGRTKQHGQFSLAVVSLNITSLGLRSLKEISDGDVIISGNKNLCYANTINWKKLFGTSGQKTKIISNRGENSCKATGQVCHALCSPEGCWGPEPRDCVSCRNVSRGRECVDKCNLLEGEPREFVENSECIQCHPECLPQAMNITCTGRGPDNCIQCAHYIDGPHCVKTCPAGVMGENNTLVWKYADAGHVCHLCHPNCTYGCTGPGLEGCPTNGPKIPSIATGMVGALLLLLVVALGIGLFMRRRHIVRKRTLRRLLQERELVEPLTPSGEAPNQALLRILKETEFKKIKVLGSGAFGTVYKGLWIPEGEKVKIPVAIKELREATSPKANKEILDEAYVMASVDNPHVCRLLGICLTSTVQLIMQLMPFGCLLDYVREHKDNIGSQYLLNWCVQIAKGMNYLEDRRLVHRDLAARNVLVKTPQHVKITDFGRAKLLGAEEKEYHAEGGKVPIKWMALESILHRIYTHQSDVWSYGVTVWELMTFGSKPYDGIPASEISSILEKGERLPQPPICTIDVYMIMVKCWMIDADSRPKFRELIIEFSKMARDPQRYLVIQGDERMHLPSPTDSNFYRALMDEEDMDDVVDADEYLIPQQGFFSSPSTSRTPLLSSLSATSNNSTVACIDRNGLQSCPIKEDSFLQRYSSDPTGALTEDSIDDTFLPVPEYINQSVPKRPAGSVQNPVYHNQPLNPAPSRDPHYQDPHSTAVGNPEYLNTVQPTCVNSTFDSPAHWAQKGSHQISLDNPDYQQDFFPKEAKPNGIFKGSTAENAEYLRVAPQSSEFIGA

[2] = target: T1, Epidermal growth factor receptor (Homo sapiens, UniProt P00533); assay: Inhibition of wild type EGFR domain (unknown origin) expressed in baculovirus expression system using Poly(Glu:Tyr)4:1 substrate after 60 mins by ELISA
T1 sequence (P00533 whole entry, the tested form may be a part): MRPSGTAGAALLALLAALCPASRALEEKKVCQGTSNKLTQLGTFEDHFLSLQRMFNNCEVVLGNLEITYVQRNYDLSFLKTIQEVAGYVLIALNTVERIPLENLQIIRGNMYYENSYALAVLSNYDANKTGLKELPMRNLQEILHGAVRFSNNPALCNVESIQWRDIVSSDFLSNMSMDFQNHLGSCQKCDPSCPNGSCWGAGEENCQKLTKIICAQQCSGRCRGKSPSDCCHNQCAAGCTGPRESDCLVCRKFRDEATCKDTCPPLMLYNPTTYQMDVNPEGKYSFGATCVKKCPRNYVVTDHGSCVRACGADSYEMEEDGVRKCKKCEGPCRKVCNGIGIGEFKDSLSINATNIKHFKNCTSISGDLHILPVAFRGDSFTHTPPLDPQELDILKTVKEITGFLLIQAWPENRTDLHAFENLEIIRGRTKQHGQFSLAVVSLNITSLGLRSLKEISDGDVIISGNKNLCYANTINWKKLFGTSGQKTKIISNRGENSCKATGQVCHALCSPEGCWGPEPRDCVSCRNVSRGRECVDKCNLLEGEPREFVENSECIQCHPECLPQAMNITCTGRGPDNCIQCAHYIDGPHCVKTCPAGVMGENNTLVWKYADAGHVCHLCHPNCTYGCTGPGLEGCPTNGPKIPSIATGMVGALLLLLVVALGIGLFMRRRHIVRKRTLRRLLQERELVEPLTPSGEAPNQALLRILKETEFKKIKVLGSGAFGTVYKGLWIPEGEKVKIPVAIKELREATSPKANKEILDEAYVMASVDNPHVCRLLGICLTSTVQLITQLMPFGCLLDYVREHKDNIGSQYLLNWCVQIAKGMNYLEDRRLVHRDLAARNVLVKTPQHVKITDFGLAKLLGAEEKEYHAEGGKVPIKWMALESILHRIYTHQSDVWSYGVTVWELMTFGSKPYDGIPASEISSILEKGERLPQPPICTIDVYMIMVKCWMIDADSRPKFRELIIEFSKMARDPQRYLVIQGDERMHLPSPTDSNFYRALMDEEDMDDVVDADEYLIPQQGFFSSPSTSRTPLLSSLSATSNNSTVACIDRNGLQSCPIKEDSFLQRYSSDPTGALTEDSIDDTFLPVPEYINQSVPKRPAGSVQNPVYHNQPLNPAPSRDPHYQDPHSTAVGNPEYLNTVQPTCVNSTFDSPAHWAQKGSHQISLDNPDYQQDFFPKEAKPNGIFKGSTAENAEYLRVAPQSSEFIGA

[3] = test system: NCI-H1975; assay: Antiproliferative activity against gefitinib-resistant human NCI-H1975 cells assessed as growth inhibition after 72 hrs by SRB assay; assay type: functional, cell-based; conditions: NCI-H1975, 72 h
[4] = test system: A-431; assay: Antiproliferative activity against human A431 cells assessed as growth inhibition after 72 hrs by SRB assay; assay type: functional, cell-based; conditions: A-431, 72 h
[5] = target: T1, Epidermal growth factor receptor; assay: Inhibition of EGFR in human A431 cells assessed as inhibition of EGF-induced AKT phosphorylation at 0.1 to 1 umol/L pretreated for 2 hrs followed by EGF challenge by Western blotting analysis; assay type: cell-based; conditions: A-431
[6] = target: T1, Epidermal growth factor receptor; assay: Inhibition of EGF-induced EGFR autophosphorylation in human A431 cells at 0.1 umol/L pretreated for 2 hrs followed by EGF challenge by Western blotting analysis; assay type: cell-based; conditions: A-431
[7] = target: T1, Epidermal growth factor receptor; assay: Inhibition of EGF-induced EGFR autophosphorylation in human A431 cells pretreated for 2 hrs followed by EGF challenge by Western blotting analysis; assay type: cell-based; conditions: A-431
[8] = test system: Epidermal growth factor receptor (Homo sapiens), P00533 [L858R,T790M]; assay: Inhibition of EGF-induced EGFR T790M/L858R double mutant phosphorylation in human NCI-H1975 cells pretreated for 2 hrs followed by EGF challenge by Western blotting analysis; assay type: cell-based
Epidermal growth factor receptor (Homo sapiens), P00533 [L858R,T790M], sequence (P00533 whole entry T790M/L858R, looked up): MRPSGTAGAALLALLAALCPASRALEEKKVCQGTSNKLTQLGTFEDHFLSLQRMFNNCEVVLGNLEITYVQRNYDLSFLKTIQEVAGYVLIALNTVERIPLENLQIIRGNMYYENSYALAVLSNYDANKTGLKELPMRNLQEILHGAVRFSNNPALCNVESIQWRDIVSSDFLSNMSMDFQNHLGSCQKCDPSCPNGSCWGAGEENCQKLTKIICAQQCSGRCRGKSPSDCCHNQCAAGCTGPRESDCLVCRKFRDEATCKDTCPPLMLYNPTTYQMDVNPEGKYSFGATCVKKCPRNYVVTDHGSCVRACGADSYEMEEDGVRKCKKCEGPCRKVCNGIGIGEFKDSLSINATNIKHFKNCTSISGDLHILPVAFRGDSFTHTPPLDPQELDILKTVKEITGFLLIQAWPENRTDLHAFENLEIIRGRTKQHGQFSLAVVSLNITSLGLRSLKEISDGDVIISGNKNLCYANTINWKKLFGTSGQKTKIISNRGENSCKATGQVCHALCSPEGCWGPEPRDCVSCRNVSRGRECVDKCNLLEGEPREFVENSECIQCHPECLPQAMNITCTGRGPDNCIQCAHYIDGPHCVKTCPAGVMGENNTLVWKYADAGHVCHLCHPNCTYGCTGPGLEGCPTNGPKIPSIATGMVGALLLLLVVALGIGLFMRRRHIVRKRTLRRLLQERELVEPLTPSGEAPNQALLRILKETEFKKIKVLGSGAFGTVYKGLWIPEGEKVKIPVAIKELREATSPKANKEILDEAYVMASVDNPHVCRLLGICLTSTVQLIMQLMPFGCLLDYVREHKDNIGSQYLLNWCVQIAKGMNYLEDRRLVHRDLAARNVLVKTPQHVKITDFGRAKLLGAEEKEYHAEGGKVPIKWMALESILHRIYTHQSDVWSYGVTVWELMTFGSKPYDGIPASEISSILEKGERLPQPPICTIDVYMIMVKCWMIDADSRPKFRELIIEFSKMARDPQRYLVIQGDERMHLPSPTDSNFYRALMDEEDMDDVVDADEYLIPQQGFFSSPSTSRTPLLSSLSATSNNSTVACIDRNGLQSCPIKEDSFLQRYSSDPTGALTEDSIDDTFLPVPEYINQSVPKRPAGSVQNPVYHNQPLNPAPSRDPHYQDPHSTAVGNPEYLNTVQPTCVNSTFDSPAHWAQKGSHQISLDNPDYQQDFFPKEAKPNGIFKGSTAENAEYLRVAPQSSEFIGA

[9] = target: T1, Epidermal growth factor receptor; assay: Inhibition of EGFR in human A431 cells assessed as inhibition of EGF-induced ERK1/2 phosphorylation at 0.1 to 1 umol/L pretreated for 2 hrs followed by EGF challenge by Western blotting analysis; assay type: cell-based; conditions: A-431
[10] = test system: Epidermal growth factor receptor (Homo sapiens), P00533 [L858R,T790M]; assay: Inhibition of EGFR T790M/L858R double mutant in human NCI-H1975 cells assessed as inhibition of EGF-induced AKT phosphorylation pretreated for 2 hrs followed by EGF challenge by Western blotting analysis; assay type: cell-based
[11] = test system: Epidermal growth factor receptor (Homo sapiens), P00533 [L858R,T790M]; assay: Inhibition of EGFR T790M/L858R double mutant in human NCI-H1975 cells assessed as inhibition of EGF-induced ERK1/2 phosphorylation pretreated for 2 hrs followed by EGF challenge by Western blotting analysis; assay type: cell-based

SMILES	IC50 [1] [µM]	IC50 [2] [µM]	IC50 [3] [µM]	IC50 [4] [µM]	inhibition [5]	inhibition [6]	inhibition [7]	inhibition [8]	inhibition [9]	inhibition [10]	inhibition [11]
O=C(/C=C/CN1CCS(=O)(=O)CC1)Nc1cc2c(Nc3ccc(F)c(Cl)c3)ncnc2s1	0.007	0.029	75.4	8.72	–	–	–	–	–	–	–
O=C(/C=C/CN1CCC2(CC1)OCCO2)Nc1cc2c(Nc3ccc(F)c(Cl)c3)ncnc2s1	0.02	0.002	6.55	0.55	–	–	–	–	–	–	–
O=C(/C=C/CN1CCCCC1)Nc1cc2c(Nc3ccc(F)c(Cl)c3)ncnc2s1	0.002	0.009	6.44	0.13	Active	Active	Dose-dependent effect	Dose-dependent effect	Active	Dose-dependent effect	Dose-dependent effect
COC(CN(C)C/C=C/C(=O)Nc1cc2c(Nc3ccc(F)c(Cl)c3)ncnc2s1)OC	0.061	0.002	4.89	0.43	–	–	–	–	–	–	–
O=C(/C=C/CNC1CCOCC1)Nc1cc2c(Nc3ccc(F)c(Cl)c3)ncnc2s1	0.032	0.02	7.05	2.21	–	–	–	–	–	–	–
CN(C)CCCNC/C=C/C(=O)Nc1cc2c(Nc3ccc(F)c(Cl)c3)ncnc2s1	0.0007	1.2	> 100	25.4	–	–	–	–	–	–	–
CN(C)CCN(C)CC(=O)Nc1cc2c(Nc3ccc(F)c(Cl)c3)ncnc2s1	> 10	4.29	17.6	1.59	–	–	–	–	–	–	–
O=C(/C=C/CN1CCOCC1)Nc1cc2c(Nc3ccc(F)c(Cl)c3)ncnc2s1	0.003	0.003	11.7	2.17	Active	Active	Dose-dependent effect	Dose-dependent effect	Active	Dose-dependent effect	Dose-dependent effect
CCCCC(=O)Nc1cc2c(Nc3ccc(F)c(Cl)c3)ncnc2s1	> 10	> 10	> 100	14.2	–	–	–	–	–	–	–
CC(C)N1CCN(C/C=C/C(=O)Nc2cc3c(Nc4ccc(F)c(Cl)c4)ncnc3s2)CC1	0.002	0.034	20.7	4.78	–	–	–	–	–	–	–
C=CCOC(=O)Nc1cc2c(Nc3ccc(F)c(Cl)c3)ncnc2s1	–	–	90.2	26.6	–	–	–	–	–	–	–
COC(=O)CCCC(=O)Nc1cc2c(Nc3ccc(F)c(Cl)c3)ncnc2s1	> 10	> 10	> 100	27.8	–	–	–	–	–	–	–
O=C(/C=C/CN1CCC(F)(F)CC1)Nc1cc2c(Nc3ccc(F)c(Cl)c3)ncnc2s1	0.004	0.007	5.16	1.2	Active	Active	Dose-dependent effect	Dose-dependent effect	Active	Dose-dependent effect	Dose-dependent effect
COC(=O)CC(=O)Nc1cc2c(Nc3ccc(F)c(Cl)c3)ncnc2s1	> 10	5	> 100	21.3	–	–	–	–	–	–	–
CS(=O)(=O)CCNC/C=C/C(=O)Nc1cc2c(Nc3ccc(F)c(Cl)c3)ncnc2s1	0.068	0.003	44.9	19.2	–	–	–	–	–	–	–
O=C(/C=C/CNCC1COC1)Nc1cc2c(Nc3ccc(F)c(Cl)c3)ncnc2s1	0.022	0.01	62.2	3.93	–	–	–	–	–	–	–
CN1CCN(CC(=O)Nc2cc3c(Nc4ccc(F)c(Cl)c4)ncnc3s2)CC1	> 10	3.4	21.5	1.7	–	–	–	–	–	–	–
C/C=C(\C)C(=O)Nc1cc2c(Nc3ccc(F)c(Cl)c3)ncnc2s1	> 10	6.41	> 100	24.2	–	–	–	–	–	–	–
CN(C)CCCC(=O)Nc1cc2c(Nc3ccc(F)c(Cl)c3)ncnc2s1	1.8	0.799	29.6	3.48	–	–	–	–	–	–	–
CCC(CC)C(=O)Nc1cc2c(Nc3ccc(F)c(Cl)c3)ncnc2s1	> 10	> 10	> 100	22.8	–	–	–	–	–	–	–

SMILES	IC50 [1] [µM]	IC50 [2] [µM]	IC50 [3] [µM]	IC50 [4] [µM]	inhibition [5]	inhibition [6]	inhibition [7]	inhibition [8]	inhibition [9]	inhibition [10]	inhibition [11]
O=C(Nc1cc2c(Nc3ccc(F)c(Cl)c3)ncnc2s1)C1CCCC1	> 10	> 10	39.3	14.9	–	–	–	–	–	–	–
O=C(/C=C/CNCc1ncccn1)Nc1cc2c(Nc3ccc(F)c(Cl)c3)ncnc2s1	0.055	0.008	53	3.24	–	–	–	–	–	–	–
O=C(/C=C/CN1CC(O)C1)Nc1cc2c(Nc3ccc(F)c(Cl)c3)ncnc2s1	0.305	0.038	6.83	1.65	–	–	–	–	–	–	–
CN(C)CCCN(C)CC(=O)Nc1cc2c(Nc3ccc(F)c(Cl)c3)ncnc2s1	1.7	5.22	19.1	2.38	–	–	–	–	–	–	–
O=C(/C=C/CN1CCC(F)(F)C1)Nc1cc2c(Nc3ccc(F)c(Cl)c3)ncnc2s1	1.76	0.028	15.8	3.69	–	–	–	–	–	–	–
CCN(CC)CCN(C)C/C=C/C(=O)Nc1cc2c(Nc3ccc(F)c(Cl)c3)ncnc2s1	0.354	0.139	> 100	4.22	–	–	–	–	–	–	–
O=C(/C=C/CN1CCC(F)CC1)Nc1cc2c(Nc3ccc(F)c(Cl)c3)ncnc2s1	–	–	10.8	2.4	–	–	–	–	–	–	–
O=C(CCl)Nc1cc2c(Nc3ccc(F)c(Cl)c3)ncnc2s1	0.71	0.04	3.01	3.58	–	–	–	–	–	–	–
O=C(/C=C/CN1CC2(CCOCC2)C1)Nc1cc2c(Nc3ccc(F)c(Cl)c3)ncnc2s1	2.25	2.16	39.2	13.4	–	–	–	–	–	–	–
CN(C)C/C=C/C(=O)Nc1cc2c(Nc3ccc(F)c(Cl)c3)ncnc2s1	0.324	0.024	10.1	0.25	–	–	–	–	–	–	–
CN(C)CCCN(C)C/C=C/C(=O)Nc1cc2c(Nc3ccc(F)c(Cl)c3)ncnc2s1	1.04	0.093	> 100	3.41	–	–	–	–	–	–	–
COCCNC/C=C/C(=O)Nc1cc2c(Nc3ccc(F)c(Cl)c3)ncnc2s1	0.005	1.04	41.7	4.85	–	–	–	–	–	–	–
O=C(/C=C/CN1CC2(COC2)C1)Nc1cc2c(Nc3ccc(F)c(Cl)c3)ncnc2s1	0.043	0.007	5.54	0.86	–	–	–	–	–	–	–
CN1CCN(C/C=C/C(=O)Nc2cc3c(Nc4ccc(F)c(Cl)c4)ncnc3s2)CC1	0.003	0.124	34.8	4.47	–	–	–	–	–	–	–
O=C(CN1CCN(CCO)CC1)Nc1cc2c(Nc3ccc(F)c(Cl)c3)ncnc2s1	> 10	0.77	> 100	10.2	–	–	–	–	–	–	–
CCN(CC)C/C=C/C(=O)Nc1cc2c(Nc3ccc(F)c(Cl)c3)ncnc2s1	0.035	0.008	11.5	0.64	–	–	–	–	–	–	–
CCN1CCN(C/C=C/C(=O)Nc2cc3c(Nc4ccc(F)c(Cl)c4)ncnc3s2)CC1	0.004	0.035	20.6	4.37	–	–	–	–	–	–	–
O=C(CN1CCC(CCO)CC1)Nc1cc2c(Nc3ccc(F)c(Cl)c3)ncnc2s1	> 10	0.542	83.4	9.48	–	–	–	–	–	–	–
CSC1CCN(C/C=C/C(=O)Nc2cc3c(Nc4ccc(F)c(Cl)c4)ncnc3s2)CC1	0.026	0.018	5.22	1.13	–	–	–	–	–	–	–
